# Measurements published in US5089516A, “1-phenyl-3,5-pyrazolidinedione hydroxystyrene compounds which have tyrosine kinase inhibiting activity” (Kanegafuchi Kagaku Kogyo Kabushiki Kaisha, priority 1987, dated 1992).
# What was measured:
# [1] = target: T1, epidermal growth factor receptor-tyrosine kinase complex (Homo sapiens, UniProt P00533); experiment: Tyrosine kinase inhibiting activity (A-431 membrane preparation, EGF-stimulated); assay type: biochemical; conditions: read-out: Tyrosine kinase inhibition rate; for inhibition at 10 µM: 10 μM in the reaction mixture; for inhibition at 1 µM: 1 μM in the reaction mixture
# T1 construct: The membrane preparation was employed in the following measurement without solubilization; endogenous in cells; host or cells: A-431 (ATCC CRL1555), membrane preparation, not solubilized
# T1 sequence (P00533 25-1210, one chain of several): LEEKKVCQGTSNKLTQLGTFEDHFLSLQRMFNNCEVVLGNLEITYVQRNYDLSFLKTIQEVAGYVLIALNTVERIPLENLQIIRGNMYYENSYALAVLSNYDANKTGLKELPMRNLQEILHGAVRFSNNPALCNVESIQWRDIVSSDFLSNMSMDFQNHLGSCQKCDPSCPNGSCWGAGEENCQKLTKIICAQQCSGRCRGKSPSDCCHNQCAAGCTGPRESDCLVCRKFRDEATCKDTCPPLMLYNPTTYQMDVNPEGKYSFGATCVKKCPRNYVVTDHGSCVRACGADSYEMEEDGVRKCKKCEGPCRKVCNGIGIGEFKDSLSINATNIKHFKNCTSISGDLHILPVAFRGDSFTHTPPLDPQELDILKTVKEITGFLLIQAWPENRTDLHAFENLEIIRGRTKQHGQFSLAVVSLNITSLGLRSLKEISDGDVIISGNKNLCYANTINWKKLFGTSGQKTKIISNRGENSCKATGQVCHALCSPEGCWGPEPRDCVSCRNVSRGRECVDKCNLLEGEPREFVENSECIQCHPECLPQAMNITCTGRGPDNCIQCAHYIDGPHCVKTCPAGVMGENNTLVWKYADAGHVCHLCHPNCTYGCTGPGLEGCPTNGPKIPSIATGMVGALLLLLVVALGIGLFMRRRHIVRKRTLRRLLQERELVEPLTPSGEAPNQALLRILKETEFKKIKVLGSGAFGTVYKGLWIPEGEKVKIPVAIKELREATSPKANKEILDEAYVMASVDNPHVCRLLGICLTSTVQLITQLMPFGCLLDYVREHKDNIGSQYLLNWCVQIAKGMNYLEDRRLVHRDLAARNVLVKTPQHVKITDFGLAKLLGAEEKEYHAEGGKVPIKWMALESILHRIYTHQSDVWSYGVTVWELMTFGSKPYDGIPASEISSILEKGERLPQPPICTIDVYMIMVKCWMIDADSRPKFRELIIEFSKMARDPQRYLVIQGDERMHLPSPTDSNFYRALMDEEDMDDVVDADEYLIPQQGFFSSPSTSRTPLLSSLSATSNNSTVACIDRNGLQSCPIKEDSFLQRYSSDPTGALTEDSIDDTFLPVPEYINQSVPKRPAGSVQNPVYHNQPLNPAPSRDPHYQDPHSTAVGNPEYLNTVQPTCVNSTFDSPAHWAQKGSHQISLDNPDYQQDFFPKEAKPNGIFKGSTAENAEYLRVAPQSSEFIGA
# Method in brief: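 Unsolubilized A-431 membranes (10 μg protein) in 20 mM HEPES pH 7.4 with 1 mM MnCl2 were preincubated with compound (DMSO) 5 min at 0° C, stimulated with 100 ng EGF 15 min, then phosphorylated with [γ-32P]ATP 15 min at 0° C. TCA-precipitated radioactivity on filter counted; inhibition % calculated against no-EGF and no-compound controls.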
# [2] = target: T2, 5-lipoxygenase (Cavia porcellus, UniProt A0A286X958); experiment: 5-Lipoxygenase inhibiting activity (5-HETE formation, cytosol of peritoneal exudate cells); assay type: biochemical, Hartley guinea pigs; conditions: read-out: Inhibition rate (5-lipoxygenase); for inhibition at 1 µM: 1 μM in the reaction mixture; for inhibition at 10 µM: 10 μM in the reaction mixture
# T2 construct: The cytosol fraction was used as an enzyme solution; from tissue; host or cells: peritoneal exudate cells of casein-injected Hartley guinea pigs, 105,000×g cytosol
# T2 sequence (A0A286X958 1-674): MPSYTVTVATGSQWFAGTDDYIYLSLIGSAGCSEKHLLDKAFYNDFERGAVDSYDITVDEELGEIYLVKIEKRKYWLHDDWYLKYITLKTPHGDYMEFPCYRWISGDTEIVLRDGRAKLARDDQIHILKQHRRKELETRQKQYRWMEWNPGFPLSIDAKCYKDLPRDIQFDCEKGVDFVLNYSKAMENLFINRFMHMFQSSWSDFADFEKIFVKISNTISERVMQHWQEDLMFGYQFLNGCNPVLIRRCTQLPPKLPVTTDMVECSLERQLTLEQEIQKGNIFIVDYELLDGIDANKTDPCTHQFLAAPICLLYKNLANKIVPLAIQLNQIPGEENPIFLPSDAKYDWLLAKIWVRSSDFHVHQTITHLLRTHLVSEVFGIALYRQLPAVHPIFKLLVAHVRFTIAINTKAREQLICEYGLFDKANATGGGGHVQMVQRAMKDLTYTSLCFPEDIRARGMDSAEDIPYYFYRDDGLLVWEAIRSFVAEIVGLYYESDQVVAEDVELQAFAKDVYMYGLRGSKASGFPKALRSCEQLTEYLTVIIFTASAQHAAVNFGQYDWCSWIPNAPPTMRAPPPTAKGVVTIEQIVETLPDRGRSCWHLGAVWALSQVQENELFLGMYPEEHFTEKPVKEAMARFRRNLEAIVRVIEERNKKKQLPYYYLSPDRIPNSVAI
# Method in brief: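 Enzyme source: cytosol (105,000×g supernatant) of casein-elicited guinea pig peritoneal exudate cells, preincubated 5 min at 30 °C with compound (2% ethanol final), 1 mM CaCl2, 1 mM GSH, 2 mM ATP, then 5 min with 20 μM [1-14C]arachidonic acid. 5-HETE separated by TLC, counted by scintillation; % inhibition versus ethanol control.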
SMILES,inhibition at 10 µM [1] [%],inhibition at 1 µM [2] [%],inhibition at 1 µM [1] [%],inhibition at 10 µM [2] [%]
O=C1NC(=S)SC1=Cc1cc(O)c(O)c(CSc2ccccc2)c1 [Compound 7],59,88,,
O=C1NC(=S)SC1=Cc1cc(CSc2ccccc2)c(O)c(OCc2ccccc2)c1 [Compound 8],69,61,,
O=C1NC(=S)SC1=Cc1cc(Cc2ccccc2)c(O)c(Cc2ccccc2)c1 [Compound 2],,,20,78
O=C1N=C(NCc2ccccc2)SC1=Cc1cc(Cc2ccccc2)c(O)c(Cc2ccccc2)c1 [Compound 26],62,84,,
CC(C)c1cc(C=C2SC(NCc3ccc(N)cc3)=NC2=O)cc(C(C)C)c1O [Compound 42],,,85,88
CC(C)c1cc(C=C2SC(NCc3ccccc3)=NC2=O)cc(C(C)C)c1O [Compound 33],69,,,82
CCCCOc1cc(C=C2SC(=S)NC2=O)cc(CSc2ccccc2)c1O [Compound 9],50,91,,
O=C1NN(c2ccccc2)C(=O)C1=Cc1cc(O)c(O)c(Cc2ccccc2)c1 [Compound 24],,48,37,
CCCCOc1cc(C=C2SC(=S)NC2=O)cc(Cc2ccccc2)c1O [Compound 10],,23,40,
CC(C)c1cc(C=C2SC(NCc3ccc(Cl)c(Cl)c3)=NC2=O)cc(C(C)C)c1O [Compound 37],83,,,89
CC(C)c1cc(C=C2SC(NCc3ccc(F)cc3)=NC2=O)cc(C(C)C)c1O [Compound 35],,,70,89
CC(C)c1cc(C=C2SC(NCc3ccc(S(N)(=O)=O)cc3)=NC2=O)cc(C(C)C)c1O [Compound 41],70,,,89
O=C1Nc2ccccc2C1=Cc1cc(O)c(O)c(CSc2ccccc2)c1 [Compound 11],52,87,,
O=C1N=C(NCc2cccs2)SC1=Cc1cc(CSc2ccccc2)c(O)c(OCc2ccccc2)c1 [Compound 31],41,49,,
O=C1NN(c2ccccc2)C(=O)C1=Cc1cc(Cc2ccccc2)c(O)c(Cc2ccccc2)c1 [Compound 20],,,46,83
Cc1ccc(CNC2=NC(=O)C(=Cc3cc(C(C)C)c(O)c(C(C)C)c3)S2)cc1 [Compound 39],43,,,87
